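Each compound was tested at five concentrations against cells in 96-well plates for 48 hours. At the TGI there is no net growth.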
Legend:
Test in all cases: growth of human tumour cells (NCI), 48 h
HOP-62 NSCLC = test system: HOP-62 NSCLC
CAKI-1 renal = test system: CAKI-1 renal
HCT-15 colon = test system: HCT-15 colon
SF-295 CNS = test system: SF-295 CNS
SNB-75 CNS = test system: SNB-75 CNS
NCI-H23 lung = test system: NCI-H23 lung
KM12 colon = test system: KM12 colon
OVCAR-8 ovarian = test system: OVCAR-8 ovarian
HCC-2998 colon = test system: HCC-2998 colon
SK-MEL-2 melanoma = test system: SK-MEL-2 melanoma
MDA-MB-435 = test system: MDA-MB-435
DU-145 prostate = test system: DU-145 prostate
A498 renal = test system: A498 renal
UACC-257 melanoma = test system: UACC-257 melanoma
TK-10 renal = test system: TK-10 renal
K-562 leukemia = test system: K-562 leukemia
U251 CNS = test system: U251 CNS
MOLT-4 leukemia = test system: MOLT-4 leukemia
SW-620 colon = test system: SW-620 colon
PC-3 prostate = test system: PC-3 prostate
NCI-H226 lung = test system: NCI-H226 lung
HS 578T breast = test system: HS 578T breast
MCF7 breast = test system: MCF7 breast
MDA-N = test system: MDA-N
SNB-19 CNS = test system: SNB-19 CNS
EKVX NSCLC = test system: EKVX NSCLC
HL-60(TB) leukemia = test system: HL-60(TB) leukemia
T-47D breast = test system: T-47D breast
HCT-116 colon = test system: HCT-116 colon
NCI-H522 lung = test system: NCI-H522 lung
SN12C renal = test system: SN12C renal
MALME-3M melanoma = test system: MALME-3M melanoma
786-0 renal = test system: 786-0 renal
SR leukemia = test system: SR leukemia
OVCAR-3 ovarian = test system: OVCAR-3 ovarian
RPMI-8226 leukemia = test system: RPMI-8226 leukemia
BT-549 breast = test system: BT-549 breast
IGROV1 ovarian = test system: IGROV1 ovarian
ACHN renal = test system: ACHN renal
RXF 393 renal = test system: RXF 393 renal
NCI-H460 lung = test system: NCI-H460 lung
LOX IMVI melanoma = test system: LOX IMVI melanoma
SF-268 CNS = test system: SF-268 CNS
OVCAR-4 ovarian = test system: OVCAR-4 ovarian
NCI/ADR-RES ovarian = test system: NCI/ADR-RES ovarian
UACC-62 melanoma = test system: UACC-62 melanoma
OVCAR-5 ovarian = test system: OVCAR-5 ovarian
SK-MEL-5 melanoma = test system: SK-MEL-5 melanoma
SK-MEL-28 melanoma = test system: SK-MEL-28 melanoma
HT29 colon = test system: HT29 colon
UO-31 renal = test system: UO-31 renal
COLO 205 colon = test system: COLO 205 colon
MDA-MB-231 breast = test system: MDA-MB-231 breast

Question: Which results are given for COc1ccc(-n2c(C)nc3ccc(NC4OC(COC(C)=O)C(OC(C)=O)C(OC(C)=O)C4OC(C)=O)cc3c2=O)cc1 (stereo not drawn)?
Answer: TGI (HOP-62 NSCLC): > 100 µM; TGI (CAKI-1 renal): 57.3 µM; TGI (HCT-15 colon): > 100 µM; TGI (SF-295 CNS): > 100 µM; TGI (SNB-75 CNS): > 100 µM; TGI (NCI-H23 lung): > 100 µM; TGI (KM12 colon): > 100 µM; TGI (OVCAR-8 ovarian): > 100 µM; TGI (HCC-2998 colon): > 100 µM; TGI (SK-MEL-2 melanoma): > 100 µM; TGI (MDA-MB-435): > 100 µM; TGI (DU-145 prostate): > 100 µM; TGI (A498 renal): > 100 µM; TGI (UACC-257 melanoma): > 100 µM; TGI (TK-10 renal): > 100 µM; TGI (K-562 leukemia): 79 µM; TGI (U251 CNS): > 100 µM; TGI (MOLT-4 leukemia): 80.8 µM; TGI (SW-620 colon): > 100 µM; TGI (PC-3 prostate): > 100 µM; TGI (NCI-H226 lung): > 100 µM; TGI (HS 578T breast): > 100 µM; TGI (MCF7 breast): > 100 µM; TGI (MDA-N): > 100 µM; TGI (SNB-19 CNS): > 100 µM; TGI (EKVX NSCLC): > 100 µM; TGI (HL-60(TB) leukemia): 48.7 µM; TGI (T-47D breast): > 100 µM; TGI (HCT-116 colon): 46.5 µM; TGI (NCI-H522 lung): 47.5 µM; TGI (SN12C renal): > 100 µM; TGI (MALME-3M melanoma): > 100 µM; TGI (786-0 renal): 65.3 µM; TGI (SR leukemia): > 100 µM; TGI (OVCAR-3 ovarian): > 100 µM; TGI (RPMI-8226 leukemia): 61.2 µM; TGI (BT-549 breast): > 100 µM; TGI (IGROV1 ovarian): > 100 µM; TGI (ACHN renal): > 100 µM; TGI (RXF 393 renal): 87.4 µM; TGI (NCI-H460 lung): > 100 µM; TGI (LOX IMVI melanoma): > 100 µM; TGI (SF-268 CNS): > 100 µM; TGI (OVCAR-4 ovarian): > 100 µM; TGI (NCI/ADR-RES ovarian): > 100 µM; TGI (UACC-62 melanoma): > 100 µM; TGI (OVCAR-5 ovarian): > 100 µM; TGI (SK-MEL-5 melanoma): > 100 µM; TGI (SK-MEL-28 melanoma): > 100 µM; TGI (HT29 colon): > 100 µM; TGI (UO-31 renal): > 100 µM; TGI (COLO 205 colon): 49.4 µM; TGI (MDA-MB-231 breast): > 100 µM
